From patent US20250145715A1, “B7-H3 TARGETING FUSION PROTEINS AND METHODS OF USE THEREOF” (GT Biopharma, Inc., priority 2021, published 2025)
“Also recorded” adds a separate entry of the source.

Legend:
[1] = tested on: MA-148-luc ovarian cancer cells; assay: Xenogeneic ovarian cancer MA-148-Luc model; assay type: in vivo, NSG mice
Source text: FIGS. 32A-32F illustrate that cam1615B7-H3 TriKE is efficacious in subduing ovarian tumor progression in vivo. FIG. 32A is a diagram showing xenogeneic ovarian cancer MA-148-Luc model in female NSG mice (N=5 per treatment group). FIG. 32B is a graph showing bioluminescent imaging indicative of tumor progression, measured as Total flux radiance (p/s), over three weeks in the MA148 mouse model treated with enriched NK cells and noted treatments. FIG. 32C is a graph illustrating bioluminescent imaging results on day 21 data point. FIG. 32D is a photograph illustrating total flux radiance (p/s) on day 21. FIG. 32E is a scatter plot of CD56+CD3− NK cell numbers from peritoneal lavages for the rhIL-15 and cam1615B7-H3 TriKE treatment groups at D21. FIG. 32F is a scatter plot of CD16 media fluorescence intensity on NK cells from peritoneal lavages for the rhIL-15 and cam1615B7-H3 TriKE treatment groups at day 21. * p<0.05, ** p<0.01.
MA-148-Luc ovarian cancer cells were incorporated into a previously described NK cell xenogeneic mouse model system. NSG mice (NOD.Cg-Prkdcscid Il2rgtm1Wjl/SzJ, n=5/group) were injected IP with 2.0×10^5 MA-148-luc cells and then three days later conditioned with low-dose total body irradiation (225 cGy). The following day, all groups received highly enriched NK cells (PBMC magnetically CD3 and CD19 depleted), equivalent to 1 million NK cells/mouse, and were started on the drug regimen. A single course of treatment consisted of an IP injection of […] of TriKE or 5 μg rhIL-15 given every day of the week (Monday-Friday) for three weeks. MA-148-luc cells are a subline of MA-148 that have been transfected with a luciferase reporter gene, allowing for imaging of the mice each week to determine their bioluminescent activity and to monitor tumor progression. Briefly, mice were injected with 100 μL of 30 mg/mL luciferin substrate 10 min prior to imaging and then anesthetized via inhalation of isoflurane gas (25). Mice were then imaged using the Xenogen Ivis 100 imaging system and analyzed with Living Image 2.5 software (Xenogen Corporation, Alameda, CA, USA). At the end of the experiment (day 21), all the animals were sacrificed, and postmortem peritoneal lavages were performed to analyze human NK cell content by flow cytometry. Animal imaging and analysis was performed at the University of Minnesota Imaging Center. Mouse studies were carried after approval (protocol 1908-37330A) from the Institutional Animal Care and Use Committee (IACUC) at the University of Minnesota and in compliance with their guidelines.
As illustrated in FIGS. 32A-32F, cam1615B7-H3 TriKE mediates anti-tumor activity in vivo. Determination of in vivo activity is a critical step for translation. However, prior to evaluating the ability of the cam1615B7-H3 TriKE to induce function against tumor the potential for toxicity was assessed. To do this NSG mice were irradiated, engrafted with 1 million NK cells, treated with nothing, IL-15, or cam1615B7-H3 for three weeks, and weights were tracked over the course of 90 days post initial treatment. […] This is not surprising given the low toxicity profile of IL-15 and the safety profile of B7-H3. […] In this model, human NK cells and human high grade serous MA-148-luc cells are injected into the peritoneal cavity of NSG mice.

[2] = tested on: myeloma cells (RPMI-8226, U266, MM1S, H929); assay: IncuCyte Zoom NK cell killing of myeloma cells; assay type: cell-based, human
Source text: (§1) FIGS. 7A-7B illustrate the ability of peripheral blood NK cells with or without B7-H3-TriKE to kill myeloma cells in live imaging IncuCyte Zoom assays. FIG. 7A is a graph showing the effects with effector:target (E:T) ratios of 2:1 and 4:1 on MM1S cells. FIG. 7B is a graph showing the effects with effector:target (E:T) ratios of 2:1 and 4:1 on U266 cells.
as §1, with “8A-8D” for “7A-7B”, “8A is a graph showing the effects with effector:target (E:T) ratios of 2:1 and 4:1 on H929 cells. FIG. 8B” for “7A”, “8C is a graph showing the effects with effector:target (E:T) ratios of 2:1 and 4:1 on RPMI-8226 cells. FIG. 8D” for “7B”
The ability of peripheral blood NK cells with or without B7-H3-TriKE to kill myeloma cells was compared in live imaging IncuCyte Zoom assays with escalating doses of TriKE. Maximal killing occurred with 3 nM concentration.

prostate cancer cells = assay: Cell index over time, killing of prostate cancer cells; assay type: cell-based, human
Source text: FIG. 21 is a graph illustrating cell index over time.

| Substance | tumor progression (bioluminescence), longitudinal ([1]; IP 30 g of TriKE or 5 μg rhIL-15 Monday-Friday for three weeks, enriched NK cells, vs IL-15 treated or tumor only) | PD-1 expression ([1]; TriKE-treated vs IL-15-treated mice) | CD16 expression on NK cells from peritoneal lavages ([1]; day 21, vs IL-15 treated mice) | tumor burden at day 21 ([1]; day 21, vs tumor only group) | disease outcome of treated animals ([1]; treatment not curative within this model) | NK cell mediated killing of myeloma lines ([2]; 3 nM B7-H3-TriKE, all four myeloma lines) | TriKE concentration giving maximal killing ([2]; escalating doses of TriKE, peripheral blood NK cells) [nM] | time to killing of prostate cancer cells after initiation of treatment (prostate cancer cells) |
| --- | --- | --- | --- | --- | --- | --- | --- | --- |
| cam1615B7-H3: second-generation TriKE: humanized camelid anti-CD16 VHH, human wild-type IL-15, anti-B7-H3 mAb 376.96 scFv; SEQ ID NO:1 | lowest tumor progression | lower (but not significant) trend of expression | higher levels of CD16 expression than IL-15 treated mice | significantly lower tumor burden than the tumor only group | stable disease |  |  |  |
| B7-H3 TriKE: camelid nanobodies targeting CD16 and B7-H3 joined by IL-15 and two linkers; sequence table equates the name with cam1615B7-H3 |  |  |  |  |  | statistically significant increase; also recorded: significantly enhanced NK cell mediated killing of myeloma cells | 3 | within a couple of hours |
